Read-outs that look alike come from different tables or passages of the source.
Tested on: C. elegans
Assay: microbe, parasite or virus in culture
Conditions: Caenorhabditis elegans
[1] = 0 h, read-out: Percentage of motility inhibition 0 h, Table S2, C. elegans SS assay, 110 μM, 0 h, averages of 4 data points
[2] = 24 h, read-out: Percentage of motility inhibition 24 h, Table S2, C. elegans SS assay, 110 μM, 24 h, averages of 4 data points
[3] = 0 h, read-out: Percentage of motility inhibition 0 h
[4] = 24 h, read-out: Percentage of motility inhibition 24 h

Structure (SMILES)	inhibition at 110 µM [1] [%]	inhibition at 110 µM [2] [%]	inhibition at 110 µM [3] [%]	inhibition at 110 µM [4] [%]
OC(Cn1cncn1)(Cn1cncn1)c1ccc(F)cc1F [Fluconazole]	7	12	–	–
CC(C)=C1CC[C@@H](C)CC1=O [Pulegone]	6	5	–	–
C=C(C)[C@@H](CC=C(C)C)C[C@@]12C[C@@H](CC=C(C)C)C(C)(C)[C@@](CC=C(C)C)(C(=O)C(C(=O)c3ccc(O)c(O)c3)=C1O)C2=O [Garcinol]	8	3	–	–
O=c1cc(-c2ccc(O)c(O)c2)oc2cc(O)cc(O)c12 [Luteolin]	4	0	–	–
C[C@H](CCC(=O)O)[C@H]1CC[C@H]2[C@@H]3CC[C@@H]4C[C@H](O)CC[C@]4(C)[C@H]3C[C@H](O)[C@]12C [Deoxycholic acid]	29	12	–	–
C[C@@H]1O[C@@H](O[C@H]2[C@H](Oc3cc(O)c4c(c3)O[C@H](c3ccc(O)cc3)CC4=O)O[C@H](CO)[C@@H](O)[C@@H]2O)[C@H](O)[C@H](O)[C@H]1O [Naringin]	0	3	–	–
O=C1/C(=C/c2ccc(O)c(O)c2)COc2cc(O)ccc21 [Sappanone A]	0	0	–	–
Cn1nnc(-c2ccc(-c3ccc(N4C[C@H](CO)OC4=O)cc3F)cn2)n1 [Tedizolid]	20	12	–	–
COc1ccc(C(=O)/C=C/c2ccccc2)cc1 [4'‐Methoxychalcone]	–	–	0	5
CC1COc2c(N3CCN(C)CC3)c(F)cc3c(=O)c(C(=O)O)cn1c23 (centres unmarked) [Ofloxacin]	2	0	–	–
C[C@@H]1O[C@@H](O[C@H]2[C@H](OC(=O)[C@]34CCC(C)(C)C[C@H]3C3=CC[C@@H]5[C@@]6(C)C[C@H](O)[C@H](O[C@@H]7O[C@H](CO)[C@@H](O)[C@H](O[C@@H]8O[C@H](CO)[C@@H](O)[C@H](O)[C@H]8O)[C@H]7O)C(CO)(CO)[C@@H]6CC[C@@]5(C)[C@]3(C)C[C@H]4O)OC[C@H](O)[C@@H]2O)[C@H](O)[C@H](O)[C@H]1O[C@@H]1OC[C@@H](O)[C@H](O[C@@H]2OC[C@](O)(CO)[C@H]2O)[C@H]1O [Platycodin D2]	0	2	–	–
CC[C@H]1OC(=O)[C@H](C)[C@@H](O[C@H]2C[C@@](C)(OC)[C@@H](O)[C@H](C)O2)[C@H](C)[C@@H](O[C@@H]2O[C@H](C)C[C@H](N(C)C)[C@H]2O)[C@](C)(O)C[C@@H](C)/C(=N\OCOCCOC)[C@H](C)[C@@H](O)[C@]1(C)O [Roxithromycin]	22	4	–	–
COc1ccc([C@@H]2CC(=O)c3c(O)cc(O[C@@H]4O[C@H](CO)[C@@H](O)[C@H](O)[C@H]4O[C@@H]4O[C@@H](C)[C@H](O)[C@@H](O)[C@H]4O)cc3O2)cc1 [Poncirin]	13	3	–	–
O=c1cc(-c2ccccc2)oc2c(O)c(O)cc(O)c12 [Norwogonin]	0	12	–	–
CC1=C(O)C(=O)C=C2C1=CC=C1[C@@]2(C)CC[C@@]2(C)[C@@H]3C[C@](C)(C(=O)O)CC[C@]3(C)CC[C@]12C [Celastrol]	0	13	–	–
O=C(O)c1c[nH]c2ccccc12 [Indole‐3‐carboxylic acid]	0	0	–	–
COc1ccc(-c2cc(=O)c3c(OC)c(OC)c(OC)c(OC)c3o2)cc1OC [Nobiletin]	0	0	–	–
C[C@@H]1[C@H]2[C@H](O[C@@H]3O[C@H](CO)[C@@H](O)[C@H](O)[C@H]3O)OC=C(C(=O)O)[C@H]2C[C@@H]1O [Loganic acid]	28	29	–	–
COc1cc(NS(=O)(=O)c2ccc(N)cc2)nc(OC)n1 [Sulfadimethoxine]	15	3	–	–
O=C(O)c1cc(O)c(O)c(O)c1 [Gallic acid]	66	34	–	–
CN(CC(=O)O)C(=N)N [Creatine]	4	9	–	–
CCn1cc(C(=O)O)c(=O)c2cnc(N3CCNCC3)nc21 [Pipemidic acid]	31	14	–	–
Cc1ncc([N+](=O)[O-])n1C [Dimetridazole]	0	14	–	–
COc1cc(O)c2c(c1)O[C@H](c1ccc(O)cc1)CC2=O [Sakuranetin]	19	18	–	–
Cc1c(O)c(C)c2c(c1O)C(=O)C[C@@H](c1ccc(O)cc1)O2 [Farrerol]	–	–	6	9
O=C[C@H](O)[C@@H](O)[C@H](O)CO [Xylose]	17	11	–	–

Structure (SMILES)	inhibition at 110 µM [1] [%]	inhibition at 110 µM [2] [%]	inhibition at 110 µM [3] [%]	inhibition at 110 µM [4] [%]
O=C1N[C@@H](Cc2c[nH]c3ccccc23)C(=O)N2CCC[C@@H]12 [Brevianamide F]	–	–	31	18
Fc1ccccc1-c1nc2ccn(Cc3ccc(-c4ccc(C(F)(F)F)cc4C(F)(F)F)nn3)cc-2n1 [Tegobuvir]	68	34	–	–
CC1(C)CC[C@]2(C(=O)O)CC[C@]3(C)C(=CC[C@@H]4[C@@]5(C)C[C@@H](O)[C@H](O)[C@@](C)(CO)[C@@H]5[C@H](O)C[C@]43C)[C@@H]2C1 [Terminolic acid]	26	10	–	–
C=C1C(=O)[C@@]23[C@@H]4OC5O[C@@]2(O)[C@@H](O)[C@@H]2C(C)(C)CC[C@@H](O)[C@]52[C@@H]3CC[C@@H]14 [Ponicidin]	4	0	–	–
CC(C)=CCC[C@](C)(O[C@@H]1O[C@H](CO)[C@@H](O)[C@H](O)[C@H]1O)[C@H]1CC[C@]2(C)[C@@H]1[C@H](O)C[C@@H]1[C@@]3(C)CC[C@H](O)C(C)(C)[C@@H]3[C@@H](O[C@@H]3O[C@H](CO)[C@@H](O)[C@H](O)[C@H]3O)C[C@]12C [Ginsenoside Rg1]	0	0	–	–
O=C(O)C1=CO[C@@H](O[C@@H]2O[C@H](CO)[C@@H](O)[C@H](O)[C@H]2O)[C@@H]2C(CO)=CC[C@H]12 [Geniposidic acid]	0	3	–	–
COc1cc(NS(=O)(=O)c2ccc(N)cc2)ncn1 [Sulfamonomethoxine]	6	1	–	–
C[C@H](C[C@H](O)[C@H]1OC1(C)C)C1=C2C[C@H](O)[C@H]3[C@@]4(C)CCC(=O)C(C)(C)[C@@H]4CC[C@]3(C)[C@@]2(C)CC1 [Alisol B]	–	–	3	10
C=C[C@@]1(C)CC(=O)[C@]2(O)[C@@]3(C)[C@@H](O)CCC(C)(C)[C@@H]3[C@H](O)[C@H](OC(C)=O)[C@@]2(C)O1 [Forskolin]	0	2	–	–
Oc1c(Cl)cc(Cl)c2cccnc12 [Chloroxine]	43	34	–	–
CN(C/C=C/C#CC(C)(C)C)Cc1cccc2ccccc12 [Terbinafine]	31	0	–	–
c1ccc(-c2ccc(C(c3ccccc3)n3ccnc3)cc2)cc1 (centres unmarked) [Bifonazole]	25	31	–	–
CC(C)[C@]12CC(=O)[C@H](C)[C@H]1C2 [α-Thujone]	9	20	–	–
O=c1cc(-c2ccc(O)c(O)c2)oc2cc(O)c([C@@H]3O[C@H](CO)[C@@H](O)[C@H](O)[C@H]3O)c(O)c12 [Isoorientin]	6	22	–	–
C=C1CCC[C@]2(C)C[C@]3(O)OC(=O)C(C)=C3C[C@@H]12 [Atractylenolide III]	3	6	–	–
C=C(C)[C@@H]1CCC2=CC(=O)C[C@@H](C)[C@]2(C)C1 [Nootkatone]	28	20	–	–
C=C1CC[C@@H]2[C@](C)(CO)[C@H](O)CC[C@@]2(C)[C@@H]1CCC1=CCOC1=O [14-Deoxyandrographolide]	1	28	–	–
CC(=O)OCC1=CO[C@@H](OC(=O)CC(C)C)[C@H]2C1=C[C@H](OC(=O)CC(C)(C)OC(C)=O)[C@]21CO1 [Acevaltrate]	–	–	7	21
CNC1CCCN(c2c(F)cc3c(=O)c(C(=O)O)cn(C4CC4)c3c2OC)C1 (centres unmarked) [Balofloxacin]	0	20	–	–
C=C1C(=O)O[C@H]2[C@H]1CCC(C)=C1CC[C@@](C)(O)[C@@H]12 [Micheliolide]	0	0	–	–
Cc1cc(C)nc(NS(=O)(=O)c2ccc(N)cc2)n1 [Sulfamethazine]	5	3	–	–
C[C@H]1CO[C@@H]2Cn3cc(C(=O)NCc4ccc(F)cc4F)c(=O)c(O)c3C(=O)N12 [Cabotegravir]	19	7	–	–
COc1ccc2c(c1)CC=C(CO)c1cc3c(cc1-2)OCO3 [Tenuifolin]	0	1	–	–
C=C[C@H]1C[N@@]2CC[C@H]1C[C@@H]2[C@@H](O)c1ccnc2ccccc12 [Cinchonine]	6	0	–	–
C[C@@H]1CCO[C@H]2Cn3cc(C(=O)NCc4ccc(F)cc4F)c(=O)c(O)c3C(=O)N12 [Dolutegravir]	25	3	–	–
C[C@@H]1O[C@@H](O[C@H]2[C@H](OC(=O)[C@]34CCC(C)(C)C[C@H]3C3=CC[C@@H]5[C@@]6(C)C[C@H](O)[C@H](O[C@@H]7O[C@H](CO)[C@@H](O)[C@H](O)[C@H]7O)C(CO)(CO)[C@@H]6CC[C@@]5(C)[C@]3(C)C[C@H]4O)OC[C@H](O)[C@@H]2O)[C@H](O)[C@H](O)[C@H]1O[C@@H]1OC[C@@H](O)[C@H](O[C@@H]2OC[C@](O)(CO)[C@H]2O)[C@H]1O [Platycodin D]	0	15	–	–
